For 1 molecule, Ka results are on record in ChEMBL document CHEMBL1142776, “In vitro binding of leukotriene B4 (LTB4) to human serum albumin: evidence from spectroscopic, molecular modeling, and competitive displacement studies” (Bioorg Med Chem Lett, 2005).

For the data set, the target named is Albumin (Homo sapiens, UniProt P02768). As to the kind of experiment: In vitro Ka value against human serum albumin; N=1.

The structures appear in SMILES notation.

Sequence of Albumin (P02768 whole entry): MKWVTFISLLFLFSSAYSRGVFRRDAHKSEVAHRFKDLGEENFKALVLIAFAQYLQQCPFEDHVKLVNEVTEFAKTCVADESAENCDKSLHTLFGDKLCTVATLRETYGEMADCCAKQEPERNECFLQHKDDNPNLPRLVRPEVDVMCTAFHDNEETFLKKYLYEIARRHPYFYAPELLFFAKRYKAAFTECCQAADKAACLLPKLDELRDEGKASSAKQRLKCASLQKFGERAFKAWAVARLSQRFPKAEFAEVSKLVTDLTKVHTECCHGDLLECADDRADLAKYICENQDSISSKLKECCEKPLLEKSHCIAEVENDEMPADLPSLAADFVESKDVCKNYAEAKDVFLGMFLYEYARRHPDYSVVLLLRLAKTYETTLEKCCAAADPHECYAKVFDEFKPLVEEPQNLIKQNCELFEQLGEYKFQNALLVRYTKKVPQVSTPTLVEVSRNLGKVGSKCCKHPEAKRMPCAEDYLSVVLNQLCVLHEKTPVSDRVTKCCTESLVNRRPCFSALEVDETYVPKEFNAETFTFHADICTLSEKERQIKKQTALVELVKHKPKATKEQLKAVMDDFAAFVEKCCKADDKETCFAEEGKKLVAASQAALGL

For the molecule `CCCCC/C=C\C[C@@H](O)/C=C/C=C/C=C\[C@@H](O)CCCC(=O)O` [LEUKOTRIENE_B4], the Ka was determined as 67000 M⁻¹.
